In patent US20260167656A1, “PHOSPHORAMIDATE COMPOUNDS AND USES THEREOF” (ALLORION THERAPEUTICS INC, priority 2022, published 2026):

Experiments:
[1] = system: non-small cell lung cancer cell line H460; assay: H460 proliferation assay in the presence of 3 uM ASP9521 (AKR1C3 specific inhibitor); assay type: cell-based, human; conditions: H460 cells, CellTiter-Glo, 72 hours, in the presence of 3 uM ASP9521 added 4 hours prior to compounds; read-out: CTG H460: Avg IC50 (nM) [Assay Condition: ASP9521]
Outline: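 H460 cells pre-incubated 24 h, then exposed to compounds for 72 h at 37 °C, 5% CO2. Viability read by CellTiter-Glo. ASP9521 (3 uM, AKR1C3 inhibitor) added 4 h before compounds.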

[2] = system: non-small cell lung cancer cell line H460; assay: In vitro human cancer cell line cytotoxicity (proliferation) assay in H460, CellTiter-Glo, 72 hours; assay type: cell-based; conditions: H460 cells, DMSO condition (no AKR1C3 inhibitor), read-out: CTG H460: Avg IC50 (nM) [Assay Condition: DMSO]
Outline: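 H460 cells were seeded at 3×10^3 per well and grown 24 h at 37 °C, 5% CO2 before compound addition from 10 mM DMSO stocks. After 72 h further incubation, viability was measured by CellTiter-Glo, and IC50 values in nM were derived from the proliferation data.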

SMILES | IC50 [1] [nM] | IC50 [2] [nM] | IC50 ([2]; Homo sapiens, NCI-H460, 72 h) [nM]
CC(OP(=O)(N1CC1)N1CC1)c1cc2cc(Oc3cccc(C(=O)N4CCC4)c3)c([N+](=O)[O-])cc2o1 (stereo not shown) [Example 549] | 5130 | 10 to 50 | –
C[C@@H](OP(=O)(N1CC1)N1CC1)c1cc2cc(Oc3ccc4c(c3)OC(F)(F)O4)c([N+](=O)[O-])cc2o1 [Example 550] | 2510 | – | < 10
C[C@H](OP(=O)(N1CC1)N1CC1)c1cc2cc(Oc3ccc4c(c3)OC(F)(F)O4)c([N+](=O)[O-])cc2o1 [Example 551] | 2600 | – | < 10
C[C@H](OP(=O)(N1CC1)N1CC1)c1cc2cc(Oc3cccc(C(=O)N4CC(F)(F)C4)c3)c([N+](=O)[O-])cc2o1 [Example 552] | 5870 | 10 to 50 | –
C[C@@H](OP(=O)(N1CC1)N1CC1)c1cc2cc(Oc3cccc(-c4ccccn4)c3)c([N+](=O)[O-])cc2o1 [Example 553] | 2950 | 10 to 50 | –
C[C@H](OP(=O)(N1CC1)N1CC1)c1cc2cc(Oc3cccc(-c4ccccn4)c3)c([N+](=O)[O-])cc2o1 [Example 554] | 6070 | < 10 | –
O=[N+]([O-])c1cc2oc(COP(=O)(N3CC3)N3CC3)cc2cc1Oc1cccc(C2CC2)c1 [Example 555] | 1490 | < 10 | –
O=C(c1cccc(Oc2cc3cc(COP(=O)(N4CC4)N4CC4)oc3cc2[N+](=O)[O-])c1)N1CCOCC1 [Example 556] | 1060 | < 10 | –
C[C@H](OP(=O)(N1CC1)N1CC1)c1cc2cc(Oc3cccc(C(=O)N4CCOCC4)c3)c([N+](=O)[O-])cc2o1 [Example 557] | 7310 | 10 to 50 | –
C[C@H](OP(=O)(N1CC1)N1CC1)c1cc2cc(Oc3cccc(C(=O)N4CCC(F)(F)C4)c3)c([N+](=O)[O-])cc2o1 [Example 558] | 3960 | 10 to 50 | –
C[C@@H](OP(=O)(N1CC1)N1CC1)c1cc2cc(Oc3cccc(C(=O)N4CCC4)c3)c([N+](=O)[O-])cc2o1 [Example 559] | 7000 | 10 to 50 | –
C[C@@H](OP(=O)(N1CC1)N1CC1)c1cc2cc(Oc3cccc(C4CC4)c3)c([N+](=O)[O-])cc2o1 [Example 561] | 4230 | 10 to 50 | –
C[C@H](OP(=O)(N1CC1)N1CC1)c1cc2cc(Oc3cccc(C4CC4)c3)c([N+](=O)[O-])cc2o1 [Example 562] | 3040 | < 10 | –
C[C@H](OP(=O)(N1CC1)N1CC1)c1cc2cc(Oc3cccc(C(=O)N4CCC(F)(F)CC4)c3)c([N+](=O)[O-])cc2o1 [Example 563] | 2110 | < 10 | –
C[C@@H](OP(=O)(N1CC1)N1CC1)c1cc2cc(Oc3ccc4c(c3)CN(C)C4=O)c([N+](=O)[O-])cc2o1 [Example 564] | 2690 | 10 to 50 | –
C[C@H](OP(=O)(N1CC1)N1CC1)c1cc2cc(Oc3ccc4c(c3)CN(C)C4=O)c([N+](=O)[O-])cc2o1 [Example 565] | 5930 | 10 to 50 | –
C[C@@H](OP(=O)(N1CC1)N1CC1)c1cc2cc(Oc3cccc(C(=O)N(C)C)c3)c([N+](=O)[O-])cc2o1 [Example 566] | 6380 | 10 to 50 | –
C[C@@H](OP(=O)(N1CC1)N1CC1)c1cc2cc(Oc3cncc(-c4ccccc4)c3)c([N+](=O)[O-])cc2o1 [Example 567] | 2110 | < 10 | –
C[C@H](OP(=O)(N1CC1)N1CC1)c1cc2cc(Oc3cncc(-c4ccccc4)c3)c([N+](=O)[O-])cc2o1 [Example 568] | 1920 | < 10 | –
CN1Cc2ccc(Oc3cc4cc(COP(=O)(N5CC5)N5CC5)oc4cc3[N+](=O)[O-])cc2C1=O [Example 569] | 937 | < 10 | –
